Experimental data taken from patent US8198452B2, “Polymorphic forms and process” (Merck Patent Gesellschaft MIT Beschränkter Haftung, priority 2006, dated 2012).

Key:
Assay type in all cases: physicochemical
[1] = stability of the basic, non-salt form
[2] = hygroscopicity of crystalline forms
[3] = thermodynamic stability of crystalline forms; conditions: versus form A2, A3 (b74 also the amorphous form, especially at room temperature)
[4] = chemical stability (thermal stability and light stability)
Excerpt: The expression chemical stability includes, but is not limited to, thermal stability and light stability.

Row | Structure (SMILES) | stability in basic, i.e. non-salt, form [1] | hygroscopicity [2] | hygroscopicity compared with other forms ([2]; versus form A2, A3 and the amorphous form, especially at room temperature) | thermodynamic stability compared with other forms [3] | chemical stability (shelf-life, thermal stability and light stability) [4]
1 | CN(C)CCNC(=O)NC[C@H]1CC[C@@H]2[C@H](O1)c1cc(C(F)(F)F)ccc1N[C@H]2c1ccccc1 [compound of formula II, 1-(2-Dimethylamino-ethyl)-3-((2R,4aS,5R,10bS)-5-phenyl-9-trifluoromethyl-3,4,4a,5,6,10b-hexahydro-2H-pyrano[3,2-c]quinolin-2-ylmethyl)-urea] | especially stable |  |  |  | 
2 | CN(C)CCNC(=O)NC[C@H]1CC[C@@H]2[C@H](O1)c1cc(C(F)(F)F)ccc1N[C@H]2c1ccccc1 [Form A1, 1-(2-Dimethylamino-ethyl)-3-((2R,4aS,5R,10bS)-5-phenyl-9-trifluoromethyl-3,4,4a,5,6,10b-hexahydro-2H-pyrano[3,2-c]quinolin-2-ylmethyl)-urea] |  | essentially non-hygroscopic | less hygroscopic than form A2, A3 and the amorphous form | thermodynamically more stable than form A2 and A3 | better chemical stability
